Consider two compounds from paper PMC9481570, “A small molecule antagonist of SMN disrupts the interaction between SMN and RNAP II” (Nature Communications, 2022).

SMILES strings stand for the structures.

Assay [1] relates to mCherry-SMN cage mutant (W102). Description: Fluorescence colocalization in U2OS cells, mCherry-SMN cage mutant. The following applies: 10 μM, 24 h, W102 mutated. The class given is cell-based, human. The method, then: (§1) U2OS cells (ATCC, HTB-96) were plated in a 35 mm FluoroDish with a 0.17 mm coverslip bottom (World Precision Instruments, FD35-100) for 12–24 h and transfected with 1.0 μg mCherry-SMN WT (wild-type) or mutant plasmids. Media was changed 4–6 h after transfection and cells were cultured for another 24 h. 10 μM CCVJ-Cmpd 1 was added for 24 h treatment. Then the treated cells were rinsed by PBS and the media replaced with phenol-free FluoroBright DMEM (Thermo Fisher, A1896701) for analysis by using Zeiss LSM880 microscopy.

The target of assay [2] is T1, SMN Tudor domain (Homo sapiens, UniProt Q16637).
T1 construct: SMN (aa 82–147); His (N, cleaved yes); made in house; host or cells: E. coli BL21 (DE3) Codon plus RIL
Briefly: Fluorescence of CCVJ-Cmpd 1 in solution on addition of SMN Tudor domain. The following applies: 10 μM SMN Tudor with 10 μM CCVJ-Cmpd 1, in solution. The class given is binding. From the text: Supplementary Fig. 5 Interaction between Tudor domain of SMN and CCVJ-Cmpd 1 triggers fluorescence signals. a Fluorescence signals of 10 µM SMN Tudor, 10 µM CCVJ-Cmpd 1, and mixture of 10 µM SMN Tudor with 10 µM CCVJ-Cmpd 1 were detected by fluorescence microscope (Nikon, ECLIPSE Ti-E), under the excitation of blue light. The […]
the SMN Tudor domain protein. Exposure time: 1 s. b Fluorescence signals for addition of different concentrations of the SMN Tudor domain protein to 5 µM CCVJ-Cmpd 1 detected by Infinite M1000 Pro microplate reader (Tecan) with an excitation wavelength of 440 nm and an emission wavelength of 460-600 nm. Data shown are representative of three […]

The target in the next assay is T2, mCherry-SMN (Homo sapiens, UniProt Q16637).
T2 construct: the coding DNAs of full-length SMN, SND1 and TDRD3 were cloned into mCherry2-C1 or GFP-C1 vector; expressed in transfected cells; host or cells: U2OS
Description: Fluorescence colocalization in U2OS cells, mCherry-SMN WT. To be noted: 10 μM, 24 h. It is filed as cell-based. The method, then:
as §1

The target in assay [3] is T1, SMN Tudor domain. Description: ITC binding to Tudor domain of SMN. To be noted: Supplementary Figs. 2, 4 and 11a (VP-ITC); read-out: Kd, ITC binding curve, Tudor domain of SMN. The source says:
The coding DNA fragments of following Tudor domains were cloned into pET28-MHL vector: SMN (aa 82–147), UHRF1 (aa 126–285), SMNDC1 (aa 53–130), TDRD3 (aa 554–611), SND1 (aa 650–910), TDRD2 (aa 327–420), FXR1 (aa 2–132), PHF1 (aa 28–87), SGF29 (aa 115–293), JMJD2A (aa 897–1101), 53BP1 (aa 1483–1606), SETDB1 (aa 190–410), LBR (aa 1–67), ZGPAT (aa 120–271). The coding regions of chromodomain of CBX7 (aa 8–62), PWWP domain of DNMT3A (aa 275–417), WD40 repeats of WDR5 (aa 24–334) and CW domain of ZCWPW2 (aa 21–78) were also subcloned into pET28-MHL vector to generate N-terminally His-tagged fusion protein. The MBT repeats of L3MBTL1 (aa 200–522) and L3MBTL2 (aa 170–625) were subcloned into pET28GST-LIC vector to generate N-terminally GST-His-tagged fusion protein. All the plasmids were generated by ligase independent cloning (Vazyme Biotech, C112 or ABclonal Technology, RK21020). […] The proteins were further purified by Superdex75 or Superdex200 gel-filtration column (GE Healthcare) in a buffer containing 20 mM Tris-HCl, pH 7.5, 150 mM NaCl and 1 mM DTT. For crystallization experiments, purified proteins were concentrated to 18 mg/mL for SMN, 23 mg/mL for UHRF1 and 10 mg/mL for TDRD3 in the gel-filtration buffer. All the mutations were introduced with the QuikChange II XL site-directed mutagenesis kit (Stratagene, 200522) and confirmed by DNA sequencing. Mutant proteins were also expressed in E. coli BL21 (DE3) Codon plus RIL and purified using the same procedures described above. The molecular weight of all protein samples was measured by mass spectrometry.
For the ITC measurement, the concentrated proteins were diluted into 20 mM Tris-HCl, pH 7.5, 150 mM NaCl (ITC buffer); the lyophilized compounds were dissolved in the same buffer, and the pH value was adjusted by adding 2 M NaOH or 2 M HCl. The compounds that could not be dissolved in the ITC buffer were dissolved in DMSO with the accessible highest concentration. Compound concentrations were calculated from the mass and the volume of the solvent. For the ITC assay with compound dissolved in DMSO, the protein was diluted by ITC buffer containing same final concentration of DMSO. All measurements were performed in duplicate at 25 °C, using a VP-ITC (MicroCal, Inc.), an iTC-200 (MicroCal, Inc.), or a Nano-ITC (TA, Inc.) microcalorimeter. The protein with a concentration of 50–100 μM was placed in the cell chamber, and the compounds with a concentration of 0.5–2 mM in syringe was injected in 25, 20, or 20 successive injections with a spacing of 180, 150, or 120 s for VP-ITC, iTC-200, or Nano-ITC, respectively, as previously described[30]–[32]. iTC-200 or Nano-ITC data were consistent with those from the VP-ITC instrument, based on ITC results of SMN-compound 1 detected by using all the instruments. Control experiments were performed under identical conditions to determine the heat signals that arise from injection of the compounds into the buffer. Data were fitted using the single-site binding model within the Origin software 7.0 package (MicroCal, Inc.) or the independent model within the Nano-Analyze software package (TA, Inc.).

In the next assay the target is T3, SMN (Homo sapiens, UniProt Q16637).
T3 construct: endogenous in cells; host or cells: U2OS
The following applies: physiological ligand; read-out: binding affinity (Kd) to SMN; cited from earlier work.

T1 sequence (Q16637 82-147): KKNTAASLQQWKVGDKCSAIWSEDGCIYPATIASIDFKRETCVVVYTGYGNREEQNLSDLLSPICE
T3 sequence (Q16637 whole entry): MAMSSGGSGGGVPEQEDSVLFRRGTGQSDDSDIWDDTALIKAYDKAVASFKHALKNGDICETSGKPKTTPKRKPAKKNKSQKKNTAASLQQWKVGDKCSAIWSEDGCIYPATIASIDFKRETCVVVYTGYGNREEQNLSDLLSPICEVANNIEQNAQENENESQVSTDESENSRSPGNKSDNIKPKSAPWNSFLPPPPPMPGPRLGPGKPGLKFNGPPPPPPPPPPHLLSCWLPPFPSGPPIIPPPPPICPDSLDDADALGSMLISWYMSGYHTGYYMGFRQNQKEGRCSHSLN
T2 sequence (Q16637 whole entry): as above

Usually Kd stands for the free concentration of one partner at which half of the binding sites on the other are occupied at equilibrium, for simple one-to-one binding. On to `N#C/C(=C\c1cc2c3c(c1)CCCN3CCC2)C(=O)NCCNC(=O)Cn1c2c(c(=N)c3c1CCC3)CCC2` [CCVJ-Cmpd 1], for which the “colocalization with mCherry-SMN cage mutant” value in assay [1] is given as “not observed”. Also, the “fluorescence signal on addition of SMN Tudor domain protein” value on SMN Tudor domain [2] is recorded as “enhanced”. Moreover, the “colocalization with mCherry-SMN” value on mCherry-SMN was “colocalized”. For the same compound, on SMN Tudor domain [3], the Kd worked out at 22 ± 1 µM.

On to `CN=C(NC)NCCC[C@H](N)C(=O)O` [symmetric dimethylarginine], for which the dissociation constant (Kd) at SMN was 476 µM.
